Results on 19 compounds are retold here after ChEMBL document CHEMBL4406910, “Scaffold Morphing Identifies 3-Pyridyl Azetidine Ureas as Inhibitors of Nicotinamide Phosphoribosyltransferase (NAMPT)” (ACS Med Chem Lett, 2019).

The structures appear in SMILES notation. Values after ≈ are worked out from the molar mass of the structure shown.

Series [1] can be described thus: Solubility of compound in pH 6.8 PBS incubated for 16 to 24 hrs under shaking condition by LC-MS/MS analysis. The class given is physicochemical.
A short description of series [2]: AUC (0 to 7 hrs) in athymic nude mouse at 10 mg/kg, po measured for 0.5 to 24 hrs by LC-MS/MS analysis. The arrangement: time < 7 hr, dose 10 mg/kg, route oral. The settings on record: in vivo. In kind it is ADME, organism-based.
A short description of series [3]: Cmax in athymic nude mouse at 10 mg/kg, po measured for 0.5 to 24 hrs by LC-MS/MS analysis. In kind it is ADME, organism-based. Further details: dose 10 mg/kg, route oral. The settings on record: in vivo.

In series [1], `CCC(=O)N[C@@H](C)c1ccc(NC(=O)N2CC(c3cncc(N)c3)C2)cc1` displayed a thermodynamic solubility of 230 µM (≈ 84.5 µg/mL). Still for that read-out and setting: the value for `C[C@H](NC(=O)[C@@H]1CCCN1C)c1ccc(NC(=O)N2CC(c3cccnc3)C2)cc1` was more than 1000 µM; that for `C[C@H](NC(=O)c1cccc(F)c1)c1ccc(NC(=O)N2CC(c3ccc(N)nc3)C2)cc1` was 32 µM (≈ 13.9 µg/mL); that for `CCC(=O)N[C@@H](C)c1ccc(NC(=O)N2CC(c3cccnc3)C2)cc1` was 700 µM (≈ 247 µg/mL).

The compound `C[C@H](NC(=O)[C@@H]1CCCN1C)c1ccc(NC(=O)N2CC(c3cncc(N)c3)C2)cc1` showed a thermodynamic solubility in series [1] of 820 µM (≈ 346 µg/mL). Turning to `C[C@H](NC(=O)C1CCOCC1)c1ccc(NC(=O)N2CC(c3ccc(N)nc3)C2)cc1`, the thermodynamic solubility in series [1] came to 310 µM (≈ 131 µg/mL). Still for that read-out and setting: the value for `C[C@@H](c1ccc(NC(=O)N2CC(c3ccc(N)nc3)C2)cc1)N1Cc2ccccc2C1=O` was 220 µM (≈ 94.1 µg/mL); that for `C[C@H](NC(=O)C1CCOCC1)c1ccc(NC(=O)N2CC(c3cccnc3)C2)cc1` was 380 µM (≈ 155 µg/mL); that for `C[C@H](NC(=O)[C@@H]1CCCN1C)c1ccc(NC(=O)N2CC(c3ccc(N)nc3)C2)cc1` was 760 µM (≈ 321 µg/mL). On the same count and under the same terms, under `C[C@H](NC(=O)c1cccc(F)c1)c1ccc(NC(=O)N2CC(c3cccnc3)C2)cc1` stands 11 µM (≈ 4.6 µg/mL); under `CCC(=O)N[C@@H](C)c1ccc(NC(=O)N2CC(c3ccc(N)nc3)C2)cc1`, 760 µM (≈ 279 µg/mL); under `C[C@@H](c1ccc(NC(=O)N2CC(c3cccnc3)C2)cc1)N1Cc2ccccc2C1=O`, 130 µM (≈ 53.6 µg/mL). On to `C[C@H](NC(=O)c1cccc(F)c1)c1ccc(NC(=O)N2CC(c3cncc(N)c3)C2)cc1`, for which the thermodynamic solubility in series [1] is 17 µM (≈ 7.37 µg/mL).

`C[C@@H](c1ccc(NC(=O)N2CC(c3cncc(N)c3)C2)cc1)N1Cc2ccccc2C1=O` yielded a thermodynamic solubility in series [1] of 35 µM (≈ 15 µg/mL).

In series [1], `C[C@H](NC(=O)c1ncccn1)c1ccc(NC(=O)N2CC(c3cccnc3)C2)cc1` registered a solubility (thermodynamic) of 930 µM (≈ 374 µg/mL). The compound `C[C@H](NC(=O)c1ncccn1)c1ccc(NC(=O)N2CC(c3ccc(N)nc3)C2)cc1` had a thermodynamic solubility in series [1] of 300 µM (≈ 125 µg/mL).

As to `C[C@H](NC(=O)C1CCOCC1)c1ccc(NC(=O)N2CC(c3cncc(N)c3)C2)cc1`, the thermodynamic solubility in series [1] stood at 440 µM (≈ 186 µg/mL). The compound `CCOc1nc2ccccc2n1Cc1ccc(NC(=O)N2CC(c3cccnc3)C2)cc1` came in with an AUC(0-t) at 7 h in series [2] of 67.4 µM·h. In series [3], this compound gave a Cmax of 29.1 µM. As for `C[C@H](NC(=O)c1ncccn1)c1ccc(NC(=O)N2CC(c3cncc(N)c3)C2)cc1`, the thermodynamic solubility in series [1] was 300 µM (≈ 125 µg/mL).
